Source: article PMC11206913, “Amoebicidal Effect of COVID Box Molecules against Acanthamoeba: A Study of Cell Death” (Pharmaceuticals, 2024)

Assays:
A. castellanii L10 cysts = experiment: Cysticidal activity, alamarBlue method; format: cell-based, Acanthamoeba castellanii L10; details: Acanthamoeba castellanii, read-out: IC50 cysticidal effect
Protocol: (§1) Based on the amoebicidal and cytotoxicity results, the selected compounds, Almitrine and Terconazole, were further investigated on the cyst stage of the various Acanthamoeba strains: A. castellanii Neff, A. griffini, A. polyphaga, A. culbertsoni, and A. castellanii L-10. The cysticidal activity was assessed by the alamarBlue™ method, as described previously. Briefly, in a 96-well plate, a serial dilution of the mentioned drugs was first conducted. Later, cysts were resuspended in PYG medium and were added into each well at a concentration of 5 × 10^4 cysts mL^−1. The plates were examined over a week using an inverted microscope. After 7 days of incubation, the plates were centrifuged at 3000 rpm and the medium was replaced with a new PYG. Finally, 10 μL of alamarBlue^TM Cell Viability Reagent (Biosource, Europe, Nivelles, Belgium) was placed into each well, and the plates were incubated at 28 °C with slight agitation. The emitted fluorescence was measured after 144 h.

[1] = tested on: A. castellanii Neff cysts; experiment: Cysticidal activity, alamarBlue method; format: cell-based; details: Acanthamoeba castellanii, read-out: IC50 cysticidal effect
Protocol: as §1

Solubility (remark) = format: physicochemical; details: reason for discarding
[2] = tested on: murine macrophages J774A.1; experiment: Cytotoxicity against murine macrophages, alamarBlue; format: cell-based
Protocol: The cytotoxicity of the COVID Box compounds was evaluated against murine macrophages of the J774A.1 cell line (ATCC TIB-67), as previously described. As mentioned in the trophocidal assay, cells were allowed to adhere on a 96-well plate in 37 °C in a 5% CO2 humidified incubator. Later, a well-defined volume of the compounds was added at an affinal concentration of 10 µM to each well. Fluorescence emitted by the alamarBlue^TM was measured after 24 h of incubation and the percentage inhibition value was determined. The Cytotoxicity Concentration 50 (CC50) value of Almitrine and Terconazole was determined following the same method described previously for the trophocidal effect.

A. griffini trophozoites = experiment: Trophocidal activity, alamarBlue assay; format: cell-based; details: Acanthamoeba griffini, read-out: IC50 trophocidal effect
Protocol: (§2) The trophocidal effect of the 160 molecules from the COVID Box was determined using the alamarBlue™ (Life Technologies, Madrid, Spain) assay as previously described with modifications. Briefly, Acanthamoeba castellanii Neff trophozoites were first seeded in triplicate on a 96-well microtiter plate with 99 μL from a stock solution of 5 × 10^4 cells mL^−1. Subsequently, 1 μL of each compound was added to each well to assess the in vitro amoebicidal activity at 10 μM as the final concentration. Finally, 10 µL of alamarBlue™ Cell Viability Reagent (Bioresource, Europe, Nivelles, Belgium) was added into each well. The plates were then incubated for 96 h at 28 °C with a slight agitation. An EnSpire microplate reader (PerkinElmer, Waltham, MA, USA) was used to measure fluorescence at 570/585 nm. Then, the percentage of inhibition value of the tested COVID Box compounds was determined in comparison with the negative control.
(§3) Almitrine and Terconazole were the COVID Box products selected to evaluate the amoebicidal effect against the trophozoite stage of […] strains of Acanthamoeba: A. castellanii Neff, A. griffini, A. polyphaga, A. culbertsoni, and A. castellanii L10. The inhibition concentration 50 (IC50) value was calculated based on the alamarBlue™ assay, as previously mentioned.

[3] = tested on: Acanthamoeba culbertsoni trophozoites; experiment: Trophocidal activity, alamarBlue assay; format: cell-based; details: read-out: IC50 trophocidal effect
Protocol: as §2, §3

[4] = tested on: Acanthamoeba castellanii L10 trophozoites; experiment: Comparative label-free proteomics; format: cell-based; details: IC50, 24 h
Protocol: The proteomic analysis was conducted according to Arbon et al., 2022 [39]. A quantity of 10^6 cells was first incubated with Terconazole at IC50 for 24 h, then treated and untreated cells were centrifuged and washed with PBS. Both groups were prepared in three biological replicates. The assay was conducted as detailed in our previous work. Results were analyzed using STRING free software and GraphPad 9 prism (Supplementary Material File S2).

Acanthamoeba culbertsoni [5] = experiment: ATP assay, CellTiter-Glo; format: cell-based; details: IC90, 24 h of treatment
Protocol: (§4) Acanthamoeba culbertsoni cells were incubated with IC90 of Terconazole for 24 h. All mean fluorescence intensities were quantified using EVOS M5000 (Life Technologies, Madrid, Spain), processing three different observations in triplicate using an objective (×40), and images of single cells were obtained by a Leica DMI 4000 B inverted confocal microscope with a 63× objective (Leica Microsystems, Germany). All assays were performed in triplicate.
After 24 h of drug treatment, the intracellular ATP content was measured using a CellTiter-Glo Luminescent Cell Viability Assay (Promega, Madison, WI, USA). The experiment was carried out according to the manufacturer’s instructions, and the luminescence intensity was measured in a white 96-well plate using an EnSpire® Multimode Plate Reader.

[6] = tested on: Acanthamoeba culbertsoni trophozoites; experiment: ROS generation, CellROX Deep Red staining; format: cell-based; details: IC90, 24 h
Protocol: as §4
The overproduction of intracellular ROS was measured using the CellROX® Deep red fluorescent probe (Invitrogen, Madrid, Spain).

A. polyphaga cysts = experiment: Cysticidal activity, alamarBlue method; format: cell-based; details: Acanthamoeba polyphaga, read-out: IC50 cysticidal effect
Protocol: as §1

[7] = tested on: Acanthamoeba culbertsoni trophozoites; experiment: Immunofluorescence staining of tubulin; format: cell-based; details: IC90, 24 h
Protocol: Immunofluorescence staining of tubulin was performed according to the manufacturer’s staining procedure (Sigma-Aldrich, Madrid, Spain) with slight modifications. Briefly, cells were treated first with Terconazole at IC90. After 24 h of incubation, 50 µL of treated and untreated cell suspensions was placed on a gelatin precoated coverslip for 30 min. Cells were first fixed with formaldehyde (4%) and later permeabilized with Triton (0.3%) for 10 min. Washed with PBS (3X), cells were treated with 5% BSA in PBS 1X/150 mM sucrose for 30 min and washed with glycine 100 mM. At this stage, the trophozoites were incubated with a monoclonal antibody, Anti-α-Tubulin (1:2000), for 2 h at room temperature. Washed twice with PBS, cells were then incubated with the second antibody labeled with Alexa 594 (1:500; from Thermo Fisher Scientific, Rockford, IL, USA) for an hour at room temperature in darkness. Finally, cells were washed with PBS 1X and mounted using mounting medium with DAPI (Sigma-Aldrich; Madrid, Spain). Three-dimensional and maximum projection imaging of the trophozoites was performed by Z-stack imaging using a Leica DMI 4000 B inverted confocal microscope with LAS X software (Leica DMI 4000 B inverted confocal microscope), a 405 nm laser and a 532 nm laser, and a Leica HCX PL Apo 63× Oil Objective.

Acanthamoeba culbertsoni [8] = experiment: Chromatin condensation, Hoechst 33342/PI double stain; format: cell-based; details: IC90, 24 h
Protocol: as §4
A double-stain apoptosis detection kit (Chromatin Condensation/Dead Cell Apoptosis Kit) with Hoechst 33342 and Propidium Iodide (Invitrogen, Madrid, Spain) were used. The experiment was carried out by following the manufacturer’s recommendations.

[9] = tested on: Acanthamoeba culbertsoni trophozoites; experiment: Mitochondrial membrane potential, JC-1 dye; format: cell-based; details: IC90, 24 h
Protocol: as §4
Based on the JC-1 state and the emitted fluorescence, we distinguished two sets in the cellular population: live cells emit high red fluorescence and affected cells with collapsed mitochondrial membrane potential emit a higher green fluorescence.

[10] = tested on: Acanthamoeba culbertsoni trophozoites; experiment: Actin staining with phalloidin-TRITC; format: cell-based; details: IC90
Protocol: As in the immunofluorescence staining, cells were first treated with IC90 of Terconazole and fixed with formaldehyde (4%) over a gelatin-precoated coverslip. Later, the cells were permeabilized with Triton (0.1%), followed by a 1 h incubation with phalloidin–tetramethylrhodamine B isothiocyanate (phalloidin-TRITC; Sigma-Aldrich, Madrid, Spain) at room temperature. Cells were finally washed with PBS 1X and mounted using mounting medium with DAPI. Cells were examined by Z-stack imaging using a Leica DMI 4000 B inverted confocal microscope with a 63× objective (Leica Microsystems, Wetzlar, Germany), a 405 nm laser, and a 532 nm laser.

Naegleria fowleri = tested on: Naegleria fowleri; parameters: method as in PMID 38718717; details: previous work of the authors; read-out: IC50 against Naegleria fowleri; cited from earlier work
[11] = tested on: A. polyphaga trophozoites; experiment: Trophocidal activity, alamarBlue assay; format: cell-based; details: Acanthamoeba polyphaga, read-out: IC50 trophocidal effect
Protocol: as §2, §3

[12] = tested on: A. castellanii L10 trophozoites; experiment: Trophocidal activity, alamarBlue assay; format: cell-based; details: Acanthamoeba castellanii, read-out: IC50 trophocidal effect
Protocol: as §2, §3

Acanthamoeba culbertsoni [13] = experiment: Plasma membrane permeability, SYTOX Green; format: cell-based; details: IC90, 24 h
Protocol: as §4
The effect of the study drug on the cell’s membrane permeability was assessed using specific DNA staining. SYTOX® Green (Molecular Probes, Invitrogen, Madrid, Spain) is a DNA-specific dye impermeable to the cells, whose fluorescence increases 500× upon fixation to the DNA. Briefly, […] trophozoites were incubated for 24 h with IC90 of the drug solution. Subsequently, the SYTOX® Green dye was added at a final concentration of 1 μM for 15 min in the dark.

With `C=CCNc1nc(NCC=C)nc(N2CCN(C(c3ccc(F)cc3)c3ccc(F)cc3)CC2)n1` [Almitrine] the IC50 (A. castellanii L10 cysts) was 8.76 ± 0.07 µM, the IC50 [1] was 51.7 ± 2.13 µM and the solubility (Solubility (remark)) was “low solubility”. For the same compound, the “cytotoxicity compared between the two drugs” value [2] was “lower cytotoxicity than Terconazole”, the IC50 (A. griffini trophozoites) was 5.2 ± 0.4 µM and the IC50 [3] was 32.08 ± 0.06 µM.

In the case of `CC(C)N1CCN(c2ccc(OCC3COC(Cn4cncn4)(c4ccc(Cl)cc4Cl)O3)cc2)CC1` (stereo not drawn) [Terconazole], the affected proteins activated [4] is reported as 20%, the affected proteins downregulated [4] is reported as 80% and the “proteins at least twofold differentially expressed” value ([4]; of 4566 identified proteins) is reported as 223 proteins. The “inhibition in the total ATP level relative to negative control” value (Acanthamoeba culbertsoni [5]) was 62.5 ± 2.36%, the “ROS production (CellROX Deep Red fluorescence)” value [6] was “significantly higher fluorescence than the untreated cells” and the IC50 [1] was 10.2 ± 2.01 µM. The IC50 (A. polyphaga cysts) was 2.24 ± 0.5 µM, the “tubulin network (immunofluorescence)” value [7] was “highly reduced cell shape with lower fluorescence” and the “chromatin condensation (Hoechst/PI staining)” value (Acanthamoeba culbertsoni [8]) was “presence of intensely bright blue, fluorescent cells”. For the same compound, the “decrease in the MMP (ratio red/green JC-1 fluorescence) compared to untreated cells” value [9] was 50%, the “actin distribution (phalloidin-TRITC fluorescence)” value [10] was “lower fluorescence than the untreated cells” and the IC50 (Naegleria fowleri) was 3.68 ± 0.61 µM. For the same compound, the IC50 [11] was 4.62 µM, the IC50 [12] was 9.07 µM and the “plasma membrane permeability (SYTOX green fluorescence)” value (Acanthamoeba culbertsoni [13]) was “statistically higher green fluorescence than the negative control”.
